Data set [1] has as its system BALB/c mice injected i.p. with LPS (E. coli 026:B6). As to the kind of experiment: LPS-induced septic shock (endotoxin model) in BALB/c mice. As to conditions: for Survival %: group of 6, 48 hrs. The format is in vivo, mouse. Also on record: key to Sickness score of individual mouse: 0: No abnormalities.; 1: Percolated fur, but no detectable behavior differences compared to normal mice.; 2: Percolated fur, huddle reflex, responds to stimuli (such as tap on cage), just as active during handling as healthy mouse.; 3: Slower response to tap on cage, passive or docile when handled, but still curious when alone in a new setting.; 4: Lack of curiosity, little or no response to stimuli, quite immobile.; 5: Labored breathing, inability or slow to self-right after being rolled onto back (moribund, sacrificed).; Dead. How it is done:
Mice used in sepsis or septic shock experiments: Female BALB/c mice of 8-12 weeks of age were used for all experiments. The animals were bred in our facility under specific pathogen-free conditions according to the protocols described in the Report of European Laboratory Animal Science Associations (FELASA) Working group on Animal Health (Laboratory Animals 28: 1-24, 1994).
Injection protocols: For the endotoxin model, BALB/c mice were injected i.p. with 150-300 μg LPS (E. coli 026:B6; Difco Lab., Detroit, Mich., USA). Control groups were treated with PBS i.p. only. To test the effect of peptides, they were dissolved in PBS and injected i.p. at predetermined points in time after LPS treatment.
Mice were scored for sickness severity using the following measurement scheme: • 0 No abnormalities. • 1 Percolated fur, but no detectable behavior differences compared to normal mice. • 2 Percolated fur, huddle reflex, responds to stimuli (such as tap on cage), just as active during handling as healthy mouse. • 3 Slower response to tap on cage, passive or docile when handled, but still curious when alone in a new setting. • 4 Lack of curiosity, little or no response to stimuli, quite immobile. • 5 Labored breathing, inability or slow to self-right after being rolled onto back (moribund, sacrificed). • D Dead […]
A comparative trial was set up to compare peptide MTR and SEQ ID NO:2. The comparative trial comprised 6 groups of 6 animals; two groups (1A and 1B) receiving placebo (PBS), one group (2) peptide MTR (source Pepscan, Lelystad, NL), one group (3) receiving peptide MTR (source Ansynth), one group (4) receiving peptide SEQ ID NO:2 (source Pepscan) and one group peptide SEQ ID NO:2 (source Ansynth). Peptide/placebo in these groups was administered 2 hours after LPS. LPS (source) was used at 10-11 mg/kg. Sickness scores were done at 0, 2, 22 26 42 and 48 hours after LPS injection.

In data set [2] the test system is mice, 25 minutes renal ischemia/reperfusion. As to the kind of experiment: Mouse renal ischemia reperfusion test (mortality, BUN/serum urea). The format is in vivo. Also on record: BUN, mean / Urea level: unit not given here. The procedure: SEQ ID NO:2 was tested and compared with PBS (control) in a double blind animal study for the peptide's relative ability to aid recovery in a mouse renal ischemia reperfusion test. In this test, the mice were anesthetized, and one kidney from each mouse was removed. The other kidney was tied off for 25 minutes, and the serum urea levels were allowed to increase. Both before and after tying off, the peptide was administered to thirty (30) different mice (5 mg oligopeptide/kg body mass intravenously), after which, the mortality of the mice was determined for each oligopeptide as well as was the BUN concentration at two hours, 24 hours and 72 hours.
Under inhalation anesthesia, the left kidney with its artery and vein was isolated and occluded for 25 minutes using a microvascular clamp. During surgery animals were placed on a heating path to maintain body temperature at 37° C. Five minutes before placing the clamp, and 5 minutes before releasing the clamp, 5 mg/kg of peptide, dissolved in 0.1 mL of sterile saline, was administered intravenously. After reperfusion of the left kidney the right kidney was removed. Kidney function was assessed by measuring blood urea nitrogen before clamping, and at 2, 24, and 72 hours after reperfusion.
To determine dose-response relationships SEQ ID NO:2, was tested in a dose-response manner in the mice test as described above. Peptides were tested at 0.3, 1, 3, 10 and 30 mg/kg dosages given as described in Example I. Serum urea levels are presented in Table 3.

For a further data set, the system named is healthy male subjects. As to the kind of experiment: Phase I human trial: safety. Type of data set: in vivo. The source says: (§1) Part 1: A Phase I, double blind, randomized, single dose, placebo controlled, dose escalation study with 4 groups of 8 subjects (Groups 1-4). In each group 6 subjects were randomized to active medication and 2 to placebo. The first group received a single intravenous injection of EA-230 or placebo. After all subjects had completed Day 7 assessments, the safety review board decided on continuation of the study until the maximum tolerated dose had been assessed or the highest dose. Placebo subjects were pooled for analysis.
(§2) Part 2: A Phase I, double blind, randomized, single dose, placebo controlled study. The second part consisted of 1 group of 12 subjects (Group 5). All twelve subjects received LPS (4 ng/kg E. coli EC6) as a 2-minute injection, 30 minutes prior to EA-230 administration. […] Cytokines profiles were assessed to establish the effect of EA-230 on inflammatory parameters.
Adverse events (AEs), vital signs, ECG, hematology, clinical chemistry, and urinalysis.
Incidence of treatment emergent AEs and treatment emergent treatment related AEs were summarized. Hematological, biochemical, urinalysis parameters, vital signs and their changes from baseline were summarized over time using n, mean, standard deviation, median and range.

The nature of data set [3]: Phase I human trial: plasma pharmacokinetics of EA-230. Type of data set: in vivo. The following applies: for tmax: 15-min infusion; for AUC(0-t) / Cmax: plasma, iv.
From the text: as §1, §2
Plasma concentration time profiles of EA-230 were analyzed. Pharmacokinetic parameters AUC, clearance, volume of distribution and elimination half-life were obtained for EA-230.
PK samples were collected pre-dose and from 5 minutes to 4 hours after the start of study drug administration.

The mark [4] stands for this setting: 1 mg/kg, 1 mg/kg i.v. 2-min infusion, N = 6, arithmetic mean ± SD.
Where [5] appears, read: 3 mg/kg, 3 mg/kg i.v. 2-min infusion, N = 6, arithmetic mean ± SD.
Where [6] appears, read: 10 mg/kg, 10 mg/kg i.v. 15-min infusion, N = 6, arithmetic mean ± SD.
Setting [7] is: 10 mg/kg, Part 2, LPS + 10 mg/kg i.v. 15-min infusion, arithmetic mean ± SD.
Where [8] appears, read: 30 mg/kg, 30 mg/kg i.v. 15-min infusion, N = 6, arithmetic mean ± SD.

“And” between values parts separate entries of the source, which are not always exact repeats. Equal entries are not always repeated. Peptide text beside a SMILES is read from it.

The AUC(0-t) is the area under the concentration-time curve up to a stated or last time point. Broadly, the Cmax is the peak of the concentration-time curve.

As for MTR, the “Sickness score of individual mouse” value in data set [1] (source Ansynth (#Ansynth 12/46) 2 hours after LPS 10-11 mg/kg, 0 hrs (before peptide)) is 0; in data set [1] (source Ansynth (#Ansynth 12/46) 2 hours after LPS 10-11 mg/kg, 2 hrs (at peptide administration)), 2; in data set [1] (source Ansynth (#Ansynth 12/46) 2 hours after LPS 10-11 mg/kg, 22 hrs), 2 (4×) and 4 and 3; in data set [1] (source Ansynth (#Ansynth 12/46) 2 hours after LPS 10-11 mg/kg, 26 hrs) it was 1 and 2 (2×) and 5 and 4 and 3; in data set [1] (source Ansynth (#Ansynth 12/46) 2 hours after LPS 10-11 mg/kg, 42 hrs), 1 and 2 (2×) and dead and 4 and 5; in data set [1] (source Ansynth (#Ansynth 12/46) 2 hours after LPS 10-11 mg/kg, 48 hrs), 1 (2×) and dead (2×) and 2. Further, the “Sickness score of individual mouse” value was 0 in data set [1] (source Pepscan (#970/#971) 5 mg/kg 2 hours after LPS 10-11 mg/kg, 0 hrs (before peptide)); 2 in data set [1] (source Pepscan (#970/#971) 5 mg/kg 2 hours after LPS 10-11 mg/kg, 2 hrs (at peptide administration)); “dead and 3 and 2 (3×) and 4” in data set [1] (source Pepscan (#970/#971) 5 mg/kg 2 hours after LPS 10-11 mg/kg, 22 hrs); 3 and 2 (3×) and 5 in data set [1] (source Pepscan (#970/#971) 5 mg/kg 2 hours after LPS 10-11 mg/kg, 26 hrs); 5 and 2 (2×) and 4 and dead in data set [1] (source Pepscan (#970/#971) 5 mg/kg 2 hours after LPS 10-11 mg/kg, 42 hrs); “dead (2×) and 2 (2×)” in data set [1] (source Pepscan (#970/#971) 5 mg/kg 2 hours after LPS 10-11 mg/kg, 48 hrs). For the same molecule, the Survival % amounted to 50% in data set [1] (source Ansynth (#Ansynth 12/46) 2 hours after LPS 10-11 mg/kg) and 33% in data set [1] (source Pepscan (#970/#971) 5 mg/kg 2 hours after LPS 10-11 mg/kg).

AQG: the Urea level in data set [2] (0.3 mg/kg, 24 h) stood at 38.4; in data set [2] (0.3 mg/kg, 72 h), 30.4; in data set [2] (1.0 mg/kg, 24 h), 48.4; in data set [2] (1.0 mg/kg, 72 h), 38.4; in data set [2] (3.0 mg/kg, 24 h), 39.3; in data set [2] (3.0 mg/kg, 72 h) it was 40.3. Besides, the Urea level is 46.8 in data set [2] (10.0 mg/kg, 24 h); 25.8 in data set [2] (10.0 mg/kg, 72 h); 52.8 in data set [2] (30.0 mg/kg, 24 h); 58.9 in data set [2] (30.0 mg/kg, 72 h).

In the case of `CC(C)[C@H](NC(=O)CNC(=O)[C@H](CCC(N)=O)NC(=O)[C@H](C)N)C(=O)O` [EA-230, H-Ala-Gln-Gly-Val-OH.xAcOH] (H-AQGV-OH), the “AE occurrence, placebo vs active subjects” value in the data set with healthy male subjects is listed as “No difference in AE occurrence”. The “safety and tolerability of a single dose” value with healthy male subjects (1 mg/kg to 30 mg/kg i.v.) is “safe and well tolerated”. Also, the “number or intensity of AEs with the dose” value in the data set on healthy male subjects (escalating dose part 1-30 mg/kg) is “No increase in the number or intensity of AEs”. Also, in the data set with healthy male subjects (whole study), the QTc result is “No abnormal QTc”. Further, in the data set on healthy male subjects (whole study), the “serious adverse events (SAE)” value is given as “No SAE occurred”. Further, the tmax in data set [3] (10 mg/kg EA-230 alone) was 5 minutes before the end of infusion; in data set [3] (most subjects, 10 mg/kg EA-230 with LPS challenge), 10 minutes before the end of infusion. Also, the “time by which average plasma concentrations were below LOQ” value in data set [3] (1-mg/kg dose) is not above 15 min; in data set [3] (30-mg/kg dose, after dosing), not above 120 min. Further, the AUC(0-t) in data set [3] (setting [4]) was 2.5 ng·h/mL; in data set [3] (setting [5]) it was 11.8 ng·h/mL; in data set [3] (setting [6]), 217 ng·h/mL; in data set [3] (setting [7]), 303 ng·h/mL; in data set [3] (setting [8]), 595 ng·h/mL. The Cmax in data set [3] (setting [4]) turned out to be 32.5 ng/mL; in data set [3] (setting [5]) it was 132 ± 76.4 ng/mL; in data set [3] (setting [6]), 1600 ± 1130 ng/mL; in data set [3] (setting [7]), 1710 ± 1330 ng/mL; in data set [3] (setting [8]), 3220 ± 1080 ng/mL. For the same molecule, the elimination from plasma entry in data set [3] (single i.v. dose 1-30 mg/kg) is listed as “rapidly eliminated”.
